Converted amounts (≈) assume the structure as drawn.
Tests used:
Assay type in all cases: cell-based
[1] = tested on: S. pneumoniae SP160 (tet resistant: tet M); experiment: Minimum inhibitory concentration assay, SP160; conditions: Streptococcus pneumoniae, read-out: MICs SP160
Description: (§1) Frozen bacterial strains were thawed and subcultured onto Mueller Hinton Broth (MHB) or other appropriate media (Streptococcus requires blood and Haemophilus requires hemin and NAD). Following incubation overnight, the strains were subcultured onto Mueller Hinton Agar and again incubated overnight. […] Isolated colonies were selected to prepare a starting inoculum equivalent to a 0.5 McFarland standard. The starting inoculum was diluted 1:125 using MHB for further use. Test compounds were prepared by dilution in sterile water to a final concentration of 5.128 mg/mL. Antibiotics (stored frozen, thawed and used within 3 hours of thawing) and compounds were further diluted to the desired working concentrations.
(§2) The assays were run as follows. Fifty μL of MHB was added to wells 2-12 of a 96-well plate. One hundred […] of appropriately diluted antibiotics was added to well 1. Fifty μL of antibiotics was removed from well 1 and added to well 2 and the contents of well 2 mixed by pipetting up and down five times. Fifty μL of the mixture in well 2 was removed and added to well 3 and mixed as above. Serial dilutions were continued in the same manner through well 12. Fifty μL was removed from well 12 so that all contained 50 μL. Fifty μL of the working inoculum was then added to all test wells. A growth control well was prepared by adding 50 μL of working inoculum and 50 μL of MHB to an empty well. The plates were then incubated at 37° C. overnight, removed from the incubator and each well was read on a plate reading mirror. The lowest concentration (MIC) of test compound that inhibited the growth of the bacteria was recorded.

[2] = tested on: E. faecalis EF159 (tet resistant: tetM); experiment: Minimum inhibitory concentration assay, EF159; conditions: Enterococcus faecalis, read-out: MICs EF159
Description: as §1, §2

[3] = tested on: K. pneumoniae ATCC 13883 (KP109); experiment: Minimum inhibitory concentration assay, KP109; conditions: Klebsiella pneumoniae, ATCC13883; K. pneumoniae ATCC 13883, wt; read-out: MICs KP109
Description: as §1, §2

[4] = tested on: E. faecalis ATCC 29212 (EF103); experiment: Minimum inhibitory concentration assay, EF103; conditions: Enterococcus faecalis, ATCC29212, read-out: MICs EF103
Description: as §1, §2

[5] = tested on: S. aureus ATCC 29213 (SA101, MSSA); experiment: Minimum inhibitory concentration assay, SA101; conditions: Staphylococcus aureus; S. aureus ATCC 29213, MSSA control; read-out: MICs SA101
Description: as §1, §2

[6] = tested on: E. coli ATCC 25922 (EC107); experiment: Minimum inhibitory concentration assay, EC107; conditions: Escherichia coli, ATCC25922; E. coli ATCC 25922, wt; read-out: MICs EC107
Description: as §1, §2

[7] = tested on: A. baumanii ATCC 19606 (AB110); experiment: Minimum inhibitory concentration assay, AB110; conditions: Acinetobacter baumannii, ATCC19606; A. baumanii ATCC 19606, wt; read-out: MICs AB110
Description: as §1, §2

[8] = tested on: P. aeruginosa ATCC 27853 (PA111); experiment: Minimum inhibitory concentration assay, PA111; conditions: Pseudomonas aeruginosa, ATCC27853; P. aeruginosa ATCC 27853, wt; read-out: MICs PA111
Description: as §1, §2

[9] = tested on: E. cloacae ATCC 13047 (EC108); experiment: Minimum inhibitory concentration assay, EC108; conditions: Enterobacter cloacae, ATCC13047; E. cloacae ATCC 13047, wt; read-out: MICs EC108
Description: as §1, §2

[10] = tested on: S. aureus SA158 (tet resistant: tetK efflux); experiment: microbe, parasite or virus in culture; conditions: Staphylococcus aureus, read-out: MICs SA158
Description: as §1, §2

[11] = tested on: E. coli EC155 (tet resistant: tetA efflux); experiment: microbe, parasite or virus in culture; conditions: Escherichia coli; E. coli tet resistant: tetA (efflux); read-out: MICs EC155
Description: as §1, §2

[12] = tested on: K. pneumoniae KP153 (tet resistant: tetA efflux); experiment: microbe, parasite or virus in culture; conditions: Klebsiella pneumoniae, read-out: MICs KP153
Description: as §1, §2

[13] = tested on: S. aureus ATCC 13709 (SA100, MSSA, Smith strain); experiment: Minimum inhibitory concentration assay, SA100; conditions: Staphylococcus aureus; S. aureus ATCC 13709, MSSA Smith strain; read-out: MICs SA100
Description: as §1, §2

[14] = tested on: S. pneumoniae ATCC 49619 (SP106); experiment: Minimum inhibitory concentration assay, SP106; conditions: Streptococcus pneumoniae, ATCC49619; S. pneumoniae ATCC 49619, wt; read-out: MICs SP106
Description: as §1, §2

[15] = tested on: S. aureus SA161 (tet resistant: tet(M) ribosomal protection); experiment: Minimum inhibitory concentration assay, SA161; conditions: Staphylococcus aureus, read-out: MICs SA161
Description: as §1, §2

SMILES	MIC [1]	MIC [2]	MIC [3]	MIC [4]	MIC [5]	MIC [6]	MIC [7]	MIC [8]	MIC [9]	MIC [10]	MIC [11]	MIC [12]	MIC [13]	MIC [14]	MIC [15]
COC[C@@H]1CCCN1CC(=O)Nc1cc(F)c2c(c1O)C(=O)C1=C(O)[C@]3(O)C(=O)C(C(N)=O)=C(O)[C@@H](N(C)C)[C@@H]3C[C@@H]1C2 [Compound 41]	0.125 µg/mL (≈ 0.207 µM)	2 µg/mL (≈ 3.32 µM)	8 µg/mL (≈ 13.3 µM)	1 µg/mL (≈ 1.66 µM)	1 µg/mL (≈ 1.66 µM)	4 µg/mL (≈ 6.64 µM)	0.5 µg/mL (≈ 0.83 µM)	> 32 µg/mL	16 µg/mL (≈ 26.6 µM)	1 µg/mL (≈ 1.66 µM)	16 µg/mL (≈ 26.6 µM)	16 µg/mL (≈ 26.6 µM)	1 µg/mL (≈ 1.66 µM)	0.125 µg/mL (≈ 0.207 µM)	2 µg/mL (≈ 3.32 µM)
CCN(CC)CC(=O)Nc1cc(F)c2c(c1O)C(=O)C1=C(O)[C@]3(O)C(=O)C(C(N)=O)=C(O)[C@@H](N(C)C)[C@@H]3C[C@@H]1C2 [Compound 25]	≤ 0.0156 µg/mL	0.0625 µg/mL (≈ 0.111 µM)	2 µg/mL (≈ 3.57 µM)	≤ 0.0156 µg/mL	0.125 µg/mL (≈ 0.223 µM)	0.5 µg/mL (≈ 0.892 µM)	0.125 µg/mL (≈ 0.223 µM)	32 µg/mL (≈ 57.1 µM)	2 µg/mL (≈ 3.57 µM)	0.0313 µg/mL (≈ 0.0558 µM)	8 µg/mL (≈ 14.3 µM)	8 µg/mL (≈ 14.3 µM)	0.125 µg/mL (≈ 0.223 µM)	≤ 0.0156 µg/mL	0.125 µg/mL (≈ 0.223 µM)
CN(C)[C@@H]1C(O)=C(C(N)=O)C(=O)[C@@]2(O)C(O)=C3C(=O)c4c(O)c(NC(=O)CN5CC[C@@H](F)C5)cc(F)c4C[C@H]3C[C@@H]12 [Compound 35]	0.016 µg/mL (≈ 0.0278 µM)	0.25 µg/mL (≈ 0.434 µM)	4 µg/mL (≈ 6.94 µM)	0.125 µg/mL (≈ 0.217 µM)	0.25 µg/mL (≈ 0.434 µM)	1 µg/mL (≈ 1.73 µM)	0.25 µg/mL (≈ 0.434 µM)	> 32 µg/mL	8 µg/mL (≈ 13.9 µM)	0.5 µg/mL (≈ 0.867 µM)	16 µg/mL (≈ 27.8 µM)	8 µg/mL (≈ 13.9 µM)	0.25 µg/mL (≈ 0.434 µM)	0.016 µg/mL (≈ 0.0278 µM)	0.5 µg/mL (≈ 0.867 µM)
CN(C)[C@@H]1C(O)=C(C(N)=O)C(=O)[C@@]2(O)C(O)=C3C(=O)c4c(O)c(NC(=O)CN5CCCC5)cc(F)c4C[C@H]3C[C@@H]12 [Compound 34]	≤ 0.0156 µg/mL	≤ 0.0156 µg/mL	0.5 µg/mL (≈ 0.895 µM)	≤ 0.0156 µg/mL	≤ 0.0156 µg/mL	0.25 µg/mL (≈ 0.448 µM)	0.125 µg/mL (≈ 0.224 µM)	16 µg/mL (≈ 28.6 µM)	1 µg/mL (≈ 1.79 µM)	0.125 µg/mL (≈ 0.224 µM)	2 µg/mL (≈ 3.58 µM)	2 µg/mL (≈ 3.58 µM)	0.0625 µg/mL (≈ 0.112 µM)	≤ 0.0156 µg/mL	0.0625 µg/mL (≈ 0.112 µM)
CN(C)[C@@H]1C(O)=C(C(N)=O)C(=O)[C@@]2(O)C(O)=C3C(=O)c4c(O)c(NC(=O)CNC(C)(C)C)cc(F)c4C[C@H]3C[C@@H]12 [Compound 11]	≤ 0.0156 µg/mL	0.125 µg/mL (≈ 0.223 µM)	1 µg/mL (≈ 1.78 µM)	0.0625 µg/mL (≈ 0.111 µM)	0.125 µg/mL (≈ 0.223 µM)	0.25 µg/mL (≈ 0.446 µM)	0.5 µg/mL (≈ 0.892 µM)	16 µg/mL (≈ 28.5 µM)	1 µg/mL (≈ 1.78 µM)	0.0625 µg/mL (≈ 0.111 µM)	2 µg/mL (≈ 3.57 µM)	2 µg/mL (≈ 3.57 µM)	0.25 µg/mL (≈ 0.446 µM)	≤ 0.0156 µg/mL	0.25 µg/mL (≈ 0.446 µM)
CN(CC(=O)Nc1cc(F)c2c(c1O)C(=O)C1=C(O)[C@]3(O)C(=O)C(C(N)=O)=C(O)[C@@H](N(C)C)[C@@H]3C[C@@H]1C2)C1CCCC1 [Compound 31]	0.25 µg/mL (≈ 0.426 µM)	1 µg/mL (≈ 1.7 µM)	4 µg/mL (≈ 6.82 µM)	0.5 µg/mL (≈ 0.852 µM)	1 µg/mL (≈ 1.7 µM)	2 µg/mL (≈ 3.41 µM)	0.5 µg/mL (≈ 0.852 µM)	> 32 µg/mL	8 µg/mL (≈ 13.6 µM)	1 µg/mL (≈ 1.7 µM)	8 µg/mL (≈ 13.6 µM)	8 µg/mL (≈ 13.6 µM)	2 µg/mL (≈ 3.41 µM)	0.25 µg/mL (≈ 0.426 µM)	2 µg/mL (≈ 3.41 µM)

Reference: patent US8796245B2 (TetraPhase Pharmaceuticals, Inc., priority 2008, dated 2014)
